# Laboratory results reported in PubChem BioAssay AID248 (DTP/NCI, 2004).
# Inconclusive results and toxic doses are left out.
# System: L1210 leukemia ip in BDF1 mice, survival T/C
# Test: NCI In Vivo Anticancer Drug Screen. Data for tumor model L1210 Leukemia (intraperitoneal) in B6D2F1 (BDF1) mice
# Conditions: endpoint: mean survival time, higher = longer survival
# Outline: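 Antitumor effect is assessed in tumor-bearing animals. Survival in the compound arm is compared with a vehicle-dosed control arm and expressed as their quotient.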
# [1] = dose: 100.0 mg/kg/injection, schedule: Q04DX003 (ip), vehicle: saline with Tween-80
# [2] = dose: 200.0 mg/kg/injection, schedule: Q04DX003 (ip), vehicle: saline with Tween-80
# [3] = dose: 100.0 mg/kg/injection, schedule: Q01DX009 (ip), vehicle: saline with Tween-80
# [4] = dose: 200.0 mg/kg/injection, schedule: Q01DX009 (ip), vehicle: saline with Tween-80
# [5] = dose: 400.0 mg/kg/injection, schedule: Q01DX009 (ip), vehicle: saline with Tween-80
# [6] = dose: 400.0 mg/kg/injection, schedule: Q04DX003 (ip), vehicle: saline with Tween-80
# [7] = dose: 100.0 mg/kg/injection, schedule: Q04DX003 (ip), vehicle: saline
# [8] = dose: 200.0 mg/kg/injection, schedule: Q04DX003 (ip), vehicle: saline
# [9] = dose: 50.0 mg/kg/injection, schedule: Q01DX009 (ip), vehicle: saline
# [10] = dose: 100.0 mg/kg/injection, schedule: Q01DX009 (ip), vehicle: saline
# [11] = dose: 100.0 mg/kg/injection, schedule: Q01DX009 (ip), vehicle: Klucel (hydroxypropylcellulose) (HPC)
# [12] = dose: 200.0 mg/kg/injection, schedule: Q01DX009 (ip), vehicle: Klucel (hydroxypropylcellulose) (HPC)
# [13] = dose: 400.0 mg/kg/injection, schedule: Q01DX009 (ip), vehicle: Klucel (hydroxypropylcellulose) (HPC)
# [14] = dose: 100.0 mg/kg/injection, schedule: Q04DX003 (ip), vehicle: Klucel (hydroxypropylcellulose) (HPC)
# [15] = dose: 200.0 mg/kg/injection, schedule: Q04DX003 (ip), vehicle: Klucel (hydroxypropylcellulose) (HPC)
# [16] = dose: 400.0 mg/kg/injection, schedule: Q04DX003 (ip), vehicle: Klucel (hydroxypropylcellulose) (HPC)
# [17] = dose: 100.0 mg/kg/injection, schedule: Q01DX001 (ip), vehicle: saline
# [18] = dose: 200.0 mg/kg/injection, schedule: Q01DX001 (ip), vehicle: saline
# [19] = dose: 400.0 mg/kg/injection, schedule: Q01DX001 (ip), vehicle: saline
structure (smiles),measurement,setting,value
Cc1ccc(NC(=O)c2ccccc2)cc1[As]=[As]c1cc(NC(=O)c2ccccc2)ccc1C (stereo not drawn),T/C,"dose: 1.0 mg/kg/injection, schedule: Q01DX015 (ip), vehicle: carboxymethylcellulose (CMC)",90 % of control
same,T/C,"dose: 2.0 mg/kg/injection, schedule: Q01DX015 (ip), vehicle: carboxymethylcellulose (CMC)",95 % of control
same,T/C,"dose: 4.0 mg/kg/injection, schedule: Q01DX015 (ip), vehicle: carboxymethylcellulose (CMC)",101 % of control
COc1cc(C(C)=O)cc([N+](=O)[O-])c1O,T/C,[1],107 % of control
same,T/C,[2],105 % of control
CCN(CC)c1cccc(N)c1,T/C,"dose: 25.0 mg/kg/injection, schedule: Q01DX009 (sc), vehicle: olive oil, sesame oil, peanut oil",100 % of control
same,T/C,"dose: 50.0 mg/kg/injection, schedule: Q01DX009 (sc), vehicle: olive oil, sesame oil, peanut oil",104 % of control
same,T/C,"dose: 100.0 mg/kg/injection, schedule: Q01DX009 (sc), vehicle: olive oil, sesame oil, peanut oil",114 % of control
same,T/C,"dose: 100.0 mg/kg/injection, schedule: Q04DX003 (sc), vehicle: olive oil, sesame oil, peanut oil",110 % of control
Cc1cc(NC(=O)SCCOC(=O)COc2ccc(Cl)cc2)ccc1Cl,T/C,[3],94 % of control
same,T/C,[4],88 % of control
same,T/C,[5],90 % of control
CCOC(=O)CC(=O)N/N=C(/C)C(=O)OCC,T/C,[3],94 % of control
same,T/C,[1],97 % of control
same,T/C,[4],87 % of control
same,T/C,[2],105 % of control
same,T/C,[5],97 % of control
same,T/C,[6],105 % of control
C=CCc1cc(CNCCCOCC)c(O)c(OC)c1,T/C,"dose: 12.5 mg/kg/injection, schedule: Q04DX003 (ip), vehicle: Klucel (hydroxypropylcellulose) (HPC)",97 % of control
same,T/C,"dose: 25.0 mg/kg/injection, schedule: Q04DX003 (ip), vehicle: Klucel (hydroxypropylcellulose) (HPC)",95 % of control
same,T/C,"dose: 50.0 mg/kg/injection, schedule: Q04DX003 (ip), vehicle: Klucel (hydroxypropylcellulose) (HPC)",92 % of control
CCCOC(=O)c1ccc(NCC(C)(C)N(C)C)cc1,T/C,[7],100 % of control
same,T/C,[8],97 % of control
same,T/C,"dose: 400.0 mg/kg/injection, schedule: Q04DX003 (ip), vehicle: saline",97 % of control
NN1CCCC1,T/C,[9],98 % of control
same,T/C,[10],96 % of control
same,T/C,[7],99 % of control
same,T/C,[8],96 % of control
CC1N=C(c2ccccc2)C2(c3ccccc3)C(C)N12 (stereo not drawn),T/C,"dose: 100.0 mg/kg/injection, schedule: Q01DX001 (ip), vehicle: Klucel (hydroxypropylcellulose) (HPC)",97 % of control
same,T/C,"dose: 200.0 mg/kg/injection, schedule: Q01DX001 (ip), vehicle: Klucel (hydroxypropylcellulose) (HPC)",94 % of control
NC(CS)=NCC12CC3CC(CC(C3)C1)C2,T/C,"dose: 12.5 mg/kg/injection, schedule: Q04DX003 (ip), vehicle: carboxymethylcellulose (CMC)",93 % of control
same,T/C,"dose: 25.0 mg/kg/injection, schedule: Q04DX003 (ip), vehicle: carboxymethylcellulose (CMC)",98 % of control
Cn1c2ccccc2c2nnc(NCCCCO)nc21,T/C,"dose: 100.0 mg/kg/injection, schedule: Q04DX002 (ip), vehicle: saline",106 % of control
same,T/C,"dose: 200.0 mg/kg/injection, schedule: Q04DX002 (ip), vehicle: saline",97 % of control
same,T/C,"dose: 400.0 mg/kg/injection, schedule: Q04DX002 (ip), vehicle: saline",101 % of control
CC1CNC(c2ccc(NC(=O)c3ccc(C(=O)Nc4ccc(C5=NC(C)CN5)cc4)c(NC(=O)Nc4cccc(C5=NC(C)CN5)c4)c3)cc2)=N1 (stereo not drawn),T/C,"dose: 1.88 mg/kg/injection, schedule: Q01DX Z (ip), vehicle: saline",116 % of control
same,T/C,"dose: 3.75 mg/kg/injection, schedule: Q01DX Z (oral), vehicle: saline",103 % of control
same,T/C,"dose: 7.5 mg/kg/injection, schedule: Q01DX Z (ip), vehicle: saline",153 % of control
same,T/C,"dose: 7.5 mg/kg/injection, schedule: Q01DX Z (oral), vehicle: saline",106 % of control
same,T/C,"dose: 15.0 mg/kg/injection, schedule: Q01DX Z (oral), vehicle: saline",101 % of control
same,T/C,"dose: 30.0 mg/kg/injection, schedule: Q01DX Z (oral), vehicle: saline",117 % of control
same,T/C,"dose: 62.5 mg/kg/injection, schedule: Q01DX010 (oral), vehicle: saline",99 % of control
same,T/C,"dose: 125.0 mg/kg/injection, schedule: Q01DX010 (oral), vehicle: saline",100 % of control
same,T/C,"dose: 250.0 mg/kg/injection, schedule: Q01DX010 (oral), vehicle: saline",92 % of control
O=C(O)c1ccc(Br)c([N+](=O)[O-])c1,T/C,[11],95 % of control
same,T/C,[12],94 % of control
same,T/C,[13],92 % of control
O=C(O)C1=CC2C3C=CC(C(=O)O)(C3)C2C1 (stereo not drawn),T/C,[3],96 % of control
same,T/C,[1],101 % of control
same,T/C,[4],96 % of control
same,T/C,[2],102 % of control
same,T/C,[5],94 % of control
same,T/C,[6],98 % of control
O=C(O)CCOc1ccc(Cl)cc1,T/C,[1],106 % of control
same,T/C,[2],103 % of control
same,T/C,[6],95 % of control
CC(=O)OI(OC(C)=O)c1cccc(C)c1,T/C,[11],96 % of control
same,T/C,[12],96 % of control
BrCC[CH2][Sn]([Br])([Br])[Br],T/C,[9],107 % of control
same,T/C,[10],103 % of control
CC(C)(C)CC(C)(C)c1ccc(OCCOCCSC(=N)N)cc1,T/C,"dose: 50.0 mg/kg/injection, schedule: Q01DX001 (ip), vehicle: carboxymethylcellulose (CMC)",93 % of control
same,T/C,"dose: 100.0 mg/kg/injection, schedule: Q01DX001 (ip), vehicle: carboxymethylcellulose (CMC)",98 % of control
CN(CCO)C(=O)c1ccc([N+](=O)[O-])cc1,T/C,[14],91 % of control
same,T/C,[15],88 % of control
same,T/C,[16],107 % of control
CC(=O)c1ccc(C(=O)NCCCc2c(C)nc(N)[nH]c2=O)cc1,T/C,[1],95 % of control
same,T/C,[2],90 % of control
same,T/C,[6],90 % of control
CNC1C(O)C2CCC(C2)C1c1ccccc1 (stereo not drawn),T/C,"dose: 75.0 mg/kg/injection, schedule: Q01DX001 (ip), vehicle: Klucel (hydroxypropylcellulose) (HPC)",96 % of control
same,T/C,"dose: 150.0 mg/kg/injection, schedule: Q01DX001 (ip), vehicle: Klucel (hydroxypropylcellulose) (HPC)",105 % of control
same,T/C,"dose: 300.0 mg/kg/injection, schedule: Q01DX001 (ip), vehicle: Klucel (hydroxypropylcellulose) (HPC)",98 % of control
O=S1(=O)N=C(Sc2ccccc2)c2ccccc21,T/C,"dose: 100.0 mg/kg/injection, schedule: Q04DX002 (ip), vehicle: saline with Tween-80",102 % of control
same,T/C,"dose: 200.0 mg/kg/injection, schedule: Q04DX002 (ip), vehicle: saline with Tween-80",98 % of control
same,T/C,"dose: 400.0 mg/kg/injection, schedule: Q04DX002 (ip), vehicle: saline with Tween-80",98 % of control
CCOc1ccc(NC(=O)OC/C=C/c2ccccc2)cc1,T/C,"dose: 50.0 mg/kg/injection, schedule: Q01DX009 (ip), vehicle: saline with Tween-80",96 % of control
same,T/C,[3],93 % of control
same,T/C,[4],90 % of control
c1ccc(SCN(CSc2ccccc2)c2ccccc2)cc1,T/C,[11],106 % of control
same,T/C,[12],101 % of control
C[N+](C)(C)C1CCCCCCC1,T/C,"dose: 75.0 mg/kg/injection, schedule: Q01DX001 (ip), vehicle: saline",96 % of control
same,T/C,"dose: 150.0 mg/kg/injection, schedule: Q01DX001 (ip), vehicle: saline",108 % of control
O=C1NN=C(c2ccccc2)C1Cc1ccccc1 (stereo not drawn),T/C,[17],94 % of control
same,T/C,[18],94 % of control
same,T/C,[19],105 % of control
Cc1cc(C)nc(NC(=O)Nc2ccccc2)c1,T/C,[11],93 % of control
same,T/C,[14],94 % of control
same,T/C,[15],92 % of control
same,T/C,[13],100 % of control
same,T/C,[16],89 % of control
Cc1ccccc1CCC(=O)OCC(=O)c1ccc(-c2ccccc2)cc1,T/C,[17],96 % of control
same,T/C,[18],88 % of control
same,T/C,[19],92 % of control
Cc1ccc(C)c2c(Cl)c3c(C)ccc(C)c3nc12,T/C,[11],98 % of control
same,T/C,"dose: 100.0 mg/kg/injection, schedule: Q04DX003 (ip), vehicle: other",100 % of control
same,T/C,[12],90 % of control
same,T/C,"dose: 200.0 mg/kg/injection, schedule: Q04DX003 (ip), vehicle: other",97 % of control
same,T/C,[13],96 % of control
same,T/C,"dose: 400.0 mg/kg/injection, schedule: Q04DX003 (ip), vehicle: other",95 % of control
